According to patent publication US20240252535A1, “CELLULAR COMPOSITION FOR TREATMENT OF DISEASES, DISORDERS OR CONDITIONS AND METHOD OF USE” (priority 2020, published 2024):
Where a name gives a salt, the structure may show the parent alone.

Experiments:
ovarian cancer = conditions: administration to tumor-bearing mice; cited from earlier work
Raji cells = experiment: CAR-T cell killing of luciferase-expressing Raji cells after pretreatment of CAR-T cells with serotonergic agonist; assay type: cell-based, human; conditions: for enhancement of killing of Raji cells: CD19 CAR-T cells preincubated one hour with 5×10^−5, 1×10^−4 or 2×10^−4 M agonist, washed, co-cultured 4 hours, versus unstimulated CAR-T cells; for level of killing of Raji cells: E:T ratio 3:1, agonist-stimulated CAR-T cells, 1% Triton-X100 control set as 100% killing
Experimental: Pergolide mesylate and 8-OH-DPAT (Sigma) were each dissolved in dimethyl sulfoxide (DMSO) to 2×10^−2 M. The solutions were subsequently diluted in Basal CAR-T medium (ProMab (Richmond, CA)) supplemented with 10% fetal bovine serum, 100U/mL sodium penicillin G (Rafa, Jerusalem) and 1000U/mL streptomycin (Rafa, Jerusalem), in a serial manner, to the indicated final concentrations. CD19 scFv-4-1BB-CD3ζ CAR-T cells (CAT. PM-CAR1002-1M) purchased from ProMab (Richmond, CA) were incubated with the diluted pergolide mesylate or 8-OH-DPAT for one hour, at 37° C. and 5% C02. The cells were pelleted by centrifugation and washed with regular cell growth medium to remove pergolide mesylate and 8-OH-DPAT prior to co-culture with target luciferase Raji cells.
Luciferase Raji cells stably expressing luciferase (Raji/NF-kB Reporter (Luc) stable cell line Cat. CL-1280) were purchased from FenicsBio (Halethorpe, MD) and grown in RPMI medium (Gibco Cat. 21875-034) supplemented with 10% fetal bovine serum, 100U/mL sodium penicillin G (Rafa, Jerusalem) and 1000 U/mL streptomycin (Rafa, Jerusalem), at 37° C. and 5% C02.
Target 2.5×10^3 Raji-luc cells were cultured, at 37° C. and 5% CO2, in each well of 96-well plates, either in medium, medium containing 1% Triton-X100 (Sigma), or with effector CAR-T cells, at an effector:target cell ratio of 0.5:1, 1:1, or 3:1 for 4 hours. Four replicate wells were prepared for each type of sample. Following the incubation period, the cells were incubated with 50 μL of reconstituted reagent (Bright-Glo Luciferase Assay System, E2620) for 2 min to detect the fluorescence intensity (FLUOstar OMEGA). The fluorescence intensity of the 1% Triton-X100 control was set as 100% killing.

5-HT1A receptors = molecular target: T1, 5-HT1A receptors (Homo sapiens, UniProt P08908); conditions: cited from earlier work
T1 sequence (P08908 1-422): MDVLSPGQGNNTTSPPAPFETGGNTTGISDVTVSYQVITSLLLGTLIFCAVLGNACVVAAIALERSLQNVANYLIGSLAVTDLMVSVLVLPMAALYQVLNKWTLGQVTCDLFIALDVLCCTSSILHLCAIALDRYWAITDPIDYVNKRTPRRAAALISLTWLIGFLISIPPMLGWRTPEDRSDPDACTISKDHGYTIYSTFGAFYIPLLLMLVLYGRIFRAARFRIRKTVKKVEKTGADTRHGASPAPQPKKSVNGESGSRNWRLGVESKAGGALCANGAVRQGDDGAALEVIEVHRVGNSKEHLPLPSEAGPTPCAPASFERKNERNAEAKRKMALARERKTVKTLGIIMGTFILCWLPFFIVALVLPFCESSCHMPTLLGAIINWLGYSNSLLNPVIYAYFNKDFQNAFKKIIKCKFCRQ

5-HT2A = 5-HT2A (Homo sapiens, UniProt P28223); conditions: cited from earlier work
Sequence of 5-HT2A (P28223 whole entry): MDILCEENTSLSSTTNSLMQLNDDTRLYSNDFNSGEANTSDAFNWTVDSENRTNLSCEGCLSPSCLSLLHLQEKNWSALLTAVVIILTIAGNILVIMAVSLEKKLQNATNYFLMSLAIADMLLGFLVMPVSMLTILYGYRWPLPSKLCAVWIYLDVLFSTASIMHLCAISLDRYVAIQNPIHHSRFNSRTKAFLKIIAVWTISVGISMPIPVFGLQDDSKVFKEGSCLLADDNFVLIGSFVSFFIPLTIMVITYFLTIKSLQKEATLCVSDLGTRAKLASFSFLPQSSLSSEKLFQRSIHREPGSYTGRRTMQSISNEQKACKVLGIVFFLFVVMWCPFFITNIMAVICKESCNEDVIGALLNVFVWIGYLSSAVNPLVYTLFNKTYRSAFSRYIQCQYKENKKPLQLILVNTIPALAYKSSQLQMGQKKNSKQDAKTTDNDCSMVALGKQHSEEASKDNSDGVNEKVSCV

| Structure (SMILES) | time to disease progression (ovarian cancer) | tumor weight (ovarian cancer) | enhancement of killing of Raji cells (Raji cells) | level of killing of Raji cells (Raji cells) | further results |
| --- | --- | --- | --- | --- | --- |
| NCCc1c[nH]c2ccc(O)cc12 [serotonin, 5-hydroxytryptamine] | decreased | increased |  |  |  |
| CCCN1C[C@H](CSC)C[C@@H]2c3cccc4[nH]cc(c34)C[C@H]21 [pergolide mesylate] |  |  | 2-3 fold | approximately 100% |  |
| CCCN(CCC)C1CCc2cccc(O)c2C1 (stereo not shown) [8-OH-DPAT, 8-hydroxy-2-(di-n-propylamino)tetralin] |  |  | 2-3 fold | approximately 100% |  |
| CN[C@H]1CC[C@@H](c2ccc(Cl)c(Cl)c2)c2ccccc21 [sertraline] | decreased | increased |  |  |  |
| CN(C)CCc1c[nH]c2cccc(OP(=O)(O)O)c12 [psilocybin] |  |  |  |  | Ki (5-HT1A receptors): 190 nM; Ki (5-HT2A): 6 nM |
